Assay results reported in patent publication US10179914B2, “CDC25A inhibitor for the treatment of drug resistant cancer or for the prevention of tumor relapse” (INSERM (INSTITUT NATIONAL DE LA SANTÉ ET DE LA RECHERCHE …, priority 2014, dated 2019).

Tests used:
human LNCaP xenografts = details: intravenous and oral routes; cited from earlier work
FLT3-ITD cells = assay: Cell death and cell cycle phase at antiproliferative concentrations; format: cell-based, human; details: at concentrations inhibiting cell proliferation
Experimental: Flow cytometry. Apoptotic cells were detected with Annexin V-FITC detection kit from BD Pharmingen (San Diego, Calif., USA) according to the manufacturer instructions. To evaluate AML cell differentiation, cells were stained for 30 min with the following anti-human monoclonal antibodies: CD11b-PE (Beckman Coulter), CD14-FITC (BD Biosciences), CD15-APC (BD Biosciences). For patient samples, additional hCD45-APC-H7 (BD Biosciences), Annexin V-Pacific Blue (BioLegend, San Diego, Calif., USA) and 7-AAD (Sigma) were used; and for bone marrow mice cells, additional CD33-FITC, CD44-PE Cy7, mCD45-PerCP Cy 5.5, CD14-Alexa 700 were used. Data were collected on a LSRII or a LSRFortessa cytometer (BD Biosciences), and analyzed with FlowJo software. A minimum of 10,000 events was collected.

[1] = system: MOLM-14 cells (FLT3-ITD positive); assay: Cell proliferation, trypan blue counting, MOLM-14; format: cell-based, human; details: 200 nM
Experimental: (§1) Cells were harvested each day and counted after trypan blue staining. The graphs represent three independent experiments.
Cell lines and reagents. […] Concerning MOLM-14 cell line, the presence of a monoallelic 21 bp FLT3-ITD mutation and of an MLL-containing ins(11; 9)(q23;p22p23) were verified (Hematology laboratory of Toulouse University Hospital, Prof E. Delabesse and Dr I. Luquet). KG1 and HL-60 (ACC-14 and ACC-3, DSMZ) cell lines were grown in Iscove's Modified Dulbecco's Medium (IMDM, Gibco) plus 20% FBS. All cells were grown in the presence of 100 units/ml of penicillin and streptomycin (Invitrogen) at 37° C. and 5% CO2.
siRNA. The MV4-11 cell line was transfected with the Amaxa nucleofection technology (Lonza, Koeln, Germany). […] Twenty-four or forty-eight hours after transfection, cells were counted (trypan blue staining), and western blotting was performed.

[2] = system: MOLM-14 TKD cells (FLT3-ITD-D835Y); assay: Cell proliferation, MOLM-14 expressing FLT3-ITD/TKD (D835Y); format: cell-based, human; details: 200 nM
Description: as §1
We consequently developed a cellular model consisting of MOLM-14 cells transfected with a FLT3-ITD mutant with a D835Y amino-acid substitution within the FLT3 kinase domain (FLT3-ITD-D835Y; FLT3-ITD/TKD).

[3] = system: human cell lines (tumor cell proliferation); details: compared with BN82685; cited from earlier work
MOLM-14 cells = assay: MOLM-14 xenograft in NSG mice, differentiation in vivo; details: 5 mg/kg/week i.p., two weeks
Experimental: (a) NSG mice were injected with 2 millions MOLM-14 cells, and treated with IRC-083864 at 5 mg/kg/week i.p. (n=4) or with vehicle buffer (n=4) as described in the Methods section. Bone marrow cells were extracted after dissection after two weeks and the expression of CD14 and CD15 on human blasts was followed by flow cytometry analysis. (b) Quantification (mean±SEM, n=4) of CD14 and CD15 expression in response to IRC-083864. (c) Morphological analyses of human cells used in (a). Original magnification ×100.
In vivo experiments. Animals were used in accordance to a protocol reviewed and approved by the Institutional Animal Care and User Ethical Committee of the UMS006 and Region Midi-Pyrénées (Approval#13-U1037-JES08). NOD/LtSz-scid IL-2Rγchainnull (NSG) mice (Sanchez P V et al) were produced at the Genotoul Anexplo platform in Toulouse (France) using breeders obtained from The Charles River Laboratory. Mice were housed in sterile conditions using HEPA filtered micro-isolators and fed with irradiated food and acidified water. Transplanted mice were treated with antibiotics (enrofloxacin) for the duration of the experiment. […] Adult mice (6 or 7-week old) were treated with 20 mg/kg Busulfan (Busilvex, Pierre Fabre, France) by i.p. administration 24 hours before injection of leukemic cells. Cultured MOLM-14 cells were washed in PBS and cleared of aggregates and debris using a 0.2 mm cell filter, and suspended in PBS at a final concentration of 2 million cells per 200 μL of PBS per mouse for i.v. injection. IRC-083864 (5 mg/kg/week) was then administrated to leukemic mice by i.p. injection. Daily monitoring of mice for symptoms of disease (ruffled coat, hunched back, weakness and reduced motility) determined the time of animal euthanasia. Cell differentiation was monitored after two IRC-083864 injections: mice were humanely killed in accordance with IACUC protocols. Bone marrow (mixed from tibias and femurs) were dissected, flushed in PBS and made into single cell suspensions for analysis by flow cytometry and cytospins.

Cdc25C = Cdc25C (Homo sapiens, UniProt P30307); details: cited from earlier work
Cdc25C, sequence (P30307 whole entry): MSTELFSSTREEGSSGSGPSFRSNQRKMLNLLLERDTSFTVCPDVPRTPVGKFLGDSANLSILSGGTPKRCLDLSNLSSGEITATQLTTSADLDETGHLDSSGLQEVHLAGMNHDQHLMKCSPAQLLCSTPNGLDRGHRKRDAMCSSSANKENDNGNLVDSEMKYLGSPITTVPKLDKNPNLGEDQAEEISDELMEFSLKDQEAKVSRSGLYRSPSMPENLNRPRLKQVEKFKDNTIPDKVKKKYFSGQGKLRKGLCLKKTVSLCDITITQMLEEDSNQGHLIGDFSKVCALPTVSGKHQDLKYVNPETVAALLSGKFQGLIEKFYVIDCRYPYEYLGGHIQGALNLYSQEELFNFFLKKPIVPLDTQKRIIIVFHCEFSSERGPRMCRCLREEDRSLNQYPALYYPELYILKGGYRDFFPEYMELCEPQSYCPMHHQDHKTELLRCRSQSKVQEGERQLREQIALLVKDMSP

Mia-Paca-2 tumors = details: intravenous and oral routes; cited from earlier work

Q: Which results are given for `Cc1nc2c(s1)C(=O)C=C(NCCCN(C)CCCNC1=CC(=O)c3nc(-c4cc(F)ccc4F)oc3C1=O)C2=O` [IRC-083864]?
A: growth of human LNCaP xenografts (human LNCaP xenografts): reduces the growth; accumulation in a phase of the cell cycle (FLT3-ITD cells): nor accumulation in a particular phase of the cell cycle; cell death (FLT3-ITD cells): did not induce neither significant cell death; proliferation of MOLM-14 [1]: robust inhibition; proliferation and death of ITD/TKD cells [2]: induced cell proliferation arrest and cell death; potency of tumor cell proliferation inhibition [3]: equivalent to that of BN82685; CD11b expression on human myeloid cells in bone marrow (MOLM-14 cells): no change; CD14 expression on MOLM-14 cells from bone marrow (MOLM-14 cells): increased expression; CD15 expression on MOLM-14 cells from bone marrow (MOLM-14 cells): unchanged expression; morphology of cytospun human bone marrow cells (MOLM-14 cells): monocytic-like nuclear changes; IC50 Cdc25 enzyme type C (Cdc25C): nanomolar range; growth of human Mia Paca-2 xenografts (Mia-Paca-2 tumors): reduces the growth
